Assay results: US20240252488A1 (KOREA RESEARCH INSTITUTE OF CHEMICAL TECHNOLOGY, priority 2020, published 2024)
Where a name gives a salt, the structure may show the parent alone.

system: FADD−/− Jurkat cells; test: Necroptosis inhibition assay, TNF-α-induced necroptosis (CellTiter-Glo 2.0); format: cell-based, human; settings: compound 1 μM; TNF-α 15 ng/mL
Description: Necroptosis Inhibition Assay
Necroptosis inhibition was evaluated by the following method.
80 μL of FADD gene-defective human T lymphocyte cells (FADD−/− Jurkat cells) were equally distributed into each well at 5.0×10^5 cells/mL in a white 96-well plate with a transparent bottom. 20 μL of the medium containing test compound was treated in each well so that the final concentration of the compound was 0.1, 1, and 10 μM, and reacted at room temperature for 30 minutes. After the 30-minute reaction was over, TNF (tumor necrosis factor)-α was treated in the corresponding well so that the final concentration of TNF-α was 15 ng/mL in order to induce necroptosis. It was cultured in a 5% CO2, 37° C. incubator for 20 to 24 hours.
After incubation, the 96-well plate was left at room temperature for 30 minutes. After 30 minutes, Promega's CellTiter-Glo 2.0 reagent was diluted 1:3 with PBS and 100 μL of the diluted solution was added to each well to confirm cell viability by measuring the amount of ATP. After the treatment, the plate was shielded from light and incubated at room temperature for 2 minutes with orbital shaking, and then left at room temperature for 10 minutes without shaking. After measuring the luminescence at 0.5 seconds per well using a plate scanner, the cytotoxicity and necroptosis inhibition rate for the compound were calculated using the measured values.

`Nc1nccnc1C(=O)N[C@@H](C(=O)Nc1ccc(F)cc1)c1ccccc1` [TDH-106, (R)-3-amino-N-(2-((4-fluorophenyl)amino)-2-oxo-1-phenylethyl)pyrazine-2-carboxamide] was tested, and the “Necroptosis inhibition assay (Rescue %) 1 μM” value was 13.76%.

same assay, conditions: compound 10 μM; TNF-α 15 ng/mL

For `Nc1nccnc1C(=O)N[C@@H](C(=O)Nc1ccc(F)cc1)c1ccccc1` [TDH-106, (R)-3-amino-N-(2-((4-fluorophenyl)amino)-2-oxo-1-phenylethyl)pyrazine-2-carboxamide], the “Necroptosis inhibition assay (Rescue %) 10 μM” value was 34.33%.

target: T1, MLKL (Homo sapiens, UniProt Q8NB16); test: Measurement of binding affinity with MLKL receptor (competitive binding assay, Kd); design: made in house; host or cells: HEK 293 cell line (T7 phage in E. coli BL21-derived host is also described); settings: not given
T1 sequence (Q8NB16 1-471): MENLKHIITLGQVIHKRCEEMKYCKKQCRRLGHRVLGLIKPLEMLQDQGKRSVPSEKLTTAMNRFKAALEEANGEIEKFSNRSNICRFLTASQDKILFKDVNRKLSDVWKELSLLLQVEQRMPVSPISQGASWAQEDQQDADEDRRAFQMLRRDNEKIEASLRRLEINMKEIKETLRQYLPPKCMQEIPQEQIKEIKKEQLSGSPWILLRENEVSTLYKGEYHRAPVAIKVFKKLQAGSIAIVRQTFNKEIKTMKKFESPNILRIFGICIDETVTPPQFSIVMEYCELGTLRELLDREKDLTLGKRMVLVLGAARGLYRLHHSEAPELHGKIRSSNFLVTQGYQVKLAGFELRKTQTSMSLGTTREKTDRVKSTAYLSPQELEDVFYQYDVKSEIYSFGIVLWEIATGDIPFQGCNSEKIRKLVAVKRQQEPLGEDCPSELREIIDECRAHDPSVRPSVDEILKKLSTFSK
Description: Measurement of Binding Affinity with MLKL Receptor (Competitive Binding Assay)
The binding affinity was evaluated by measuring the Kd value in the following method.
To prepare kinase-tagged T7 phage strains in an E. coli host derived from the BL21 strain, E. coli were grown to log-phase and infected with T7 phage and incubated with shaking at 32° C. until lysis. The lysates were centrifuged and filtered to remove cell debris. For kinase production, it was expressed in human embryonic kidney cell line (HEK 293 cell line), and subsequently tagged with DNA for qPCR detection.
The liganded beads were blocked with excess biotin and washed with blocking buffer (SeaBlock (Pierce), 1% BSA, 0.05% Tween 20, 1 mM DTT) to remove unbound ligand and to reduce non-specific binding. […] Test compounds were prepared as 111× stocks in 100% DMSO.
The compounds were then diluted directly into the assays such that the final concentration of DMSO was 0.9%. All reactions performed in polypropylene 384-well plate. Each was a final volume of 0.02 ml. […] The kinase concentration in the eluates was measured by qPCR.

First: Nc1ncc(C2=CCNCC2)nc1C(=O)O[C@@H](C(=O)Nc1ccc(F)cc1)c1ccccc1 [TDH-068, (R)-2-((4-fluorophenyl)amino)-2-oxo-1-phenylethyl 3-amino-6-(1,2,3,6-tetrahydropyridin-4-yl)pyrazine-2-carboxylate hydrochloride]
Second: Nc1ncc(C2=CCNCC2)cc1C(=O)O[C@@H](C(=O)Nc1ccc(F)cc1)c1ccccc1 [TDH-070, (R)-2-((4-fluorophenyl)amino)-2-oxo-1-phenylethyl 6-amino-1′,2′,3′,6′-tetrahydro-[3,4′-bipyridine]-5-carboxylate hydrochloride]
The Kd of the first is 3.5-fold higher: 380 nM for the first, 110 nM for the second. The second binds more tightly here.

Compared with `CC(=O)N1CC[C@@H](n2cc(-c3cnc(N)c(C(=O)OC(C(=O)Nc4ccc(F)cc4)c4ccccc4)n3)cn2)C1` (stereo partly drawn) [TDH-229, 2-((4-fluorophenyl)amino)-2-oxo-1-phenylethyl 6-(1-((R)-1-acetylpyrrolidin-3-yl)-1H-pyrazol-4-yl)-3-aminopyrazine-2-carboxylate], `CC(=O)N1CCC(n2cc(-c3cnc(N)c(C(=O)O[C@@H](C(=O)Nc4ccc(F)cc4)c4ccccc4)n3)cn2)CC1` [TDH-097, (R)-2-((4-fluorophenyl)amino)-2-oxo-1-phenylethyl 6-(1-(1-acetylpiperidin-4-yl)-1H-pyrazol-4-yl)-3-aminopyrazine-2-carboxylate] is 1.5-fold lower in Kd: 1.1 nM for the first, 0.73 nM for the second.

Going from `Nc1ncc(C2=CCN(C(=O)COCCOCCNc3ccc4c(c3)C(=O)N(C3CCC(=O)NC3=O)C4=O)CC2)cc1C(=O)O[C@@H](C(=O)Nc1ccc(F)cc1)c1ccccc1` (stereo partly drawn) [TDH-083, (R)-2-((4-fluorophenyl)amino)-2-oxo-1-phenylethyl 6-amino-1′-(2-(2-(2-((2-(2,6-dioxopiperidin-3-yl)-1,3-dioxoisoindolin-5-yl)amino)ethoxy)ethoxy)acetyl)-1′,2′,3′,6′-tetrahydro-[3,4′-bipyridine]-5-carboxylate] to `Nc1ncc(C2=CCN(C(=O)COCCOCCNC(=O)C3CCN(c4ccc5c(c4)C(=O)N(C4CCC(=O)NC4=O)C5=O)CC3)CC2)cc1C(=O)O[C@@H](C(=O)Nc1ccc(F)cc1)c1ccccc1` (stereo partly drawn) [TDH-089, (R)-2-((4-fluorophenyl)amino)-2-oxo-1-phenylethyl 6-amino-1′-(2-(2-(2-(1-(2-(2,6-dioxopiperidin-3-yl)-1,3-dioxoisoindolin-5-yl)piperidine-4-carboxamido)ethoxy)ethoxy)acetyl)-1′,2′,3′,6′-tetrahydro-[3,4′-bipyridine]-5-carboxylate], the Kd falls from 84 nM to 56 nM (1.5-fold).

Compared with `Nc1ncc(-c2cnn(C3CCNCC3)c2)nc1C(=O)O[C@@H](C(=O)Nc1ccncc1)c1ccccc1` [TDH-479, (R)-2-oxo-1-phenyl-2-(pyridin-4-ylamino)ethyl 3-amino-6-(1-(piperidin-4-yl)-1H-pyrazol-4-yl)pyrazine-2-carboxylate--2,2,2-trifluoroacetaldehyde], `Nc1ncc(-c2cnn(C3CCNCC3)c2)nc1C(=O)O[C@@H](C(=O)Nc1cccnc1)c1ccccc1` [TDH-468, (R)-2-oxo-1-phenyl-2-(pyridin-3-ylamino)ethyl 3-amino-6-(1-(piperidin-4-yl)-1H-pyrazol-4-yl)pyrazine-2-carboxylate hydrochloride] is 3.3-fold lower in Kd: 5.6 nM for the first, 1.7 nM for the second.

First: Nc1ncc(-c2cnn(C3CCN(CCCCCCCCCCNc4cccc5c4C(=O)N(C4CCC(=O)NC4=O)C5=O)CC3)c2)nc1C(=O)O[C@@H](C(=O)Nc1ccc(F)cc1)c1ccccc1 (stereo partly drawn) [TDH-095, (R)-2-((4-fluorophenyl)amino)-2-oxo-1-phenylethyl 3-amino-6-(1-(1-(10-((2-(2,6-dioxopiperidin-3-yl)-1,3-dioxoisoindolin-4-yl)amino)decyl)piperidin-4-yl)-1H-pyrazol-4-yl)pyrazine-2-carboxylate]
Second: Nc1ncc(-c2cnn(C3CCN(CCCCCCNc4cccc5c4C(=O)N(C4CCC(=O)NC4=O)C5=O)CC3)c2)nc1C(=O)O[C@@H](C(=O)Nc1ccc(F)cc1)c1ccccc1 (stereo partly drawn) [TDH-119, (R)-2-((4-fluorophenyl)amino)-2-oxo-1-phenylethyl 3-amino-6-(1-(1-(6-((2-(2,6-dioxopiperidin-3-yl)-1,3-dioxoisoindolin-4-yl)amino)hexyl)piperidin-4-yl)-1H-pyrazol-4-yl)pyrazine-2-carboxylate]
The Kd of the first is 3.3-fold higher: 26 nM for the first, 7.9 nM for the second. The second binds more tightly here.

Compared with `CCN1CCN(c2ccc(-c3cnc(N)c(C(=O)O[C@@H](C(=O)Nc4ccc(F)cc4)c4ccccc4)n3)cn2)CC1` [TDH-183, (R)-2-((4-fluorophenyl)amino)-2-oxo-1-phenylethyl 3-amino-6-(6-(4-ethylpiperazin-1-yl)pyridin-3-yl)pyrazine-2-carboxylate], `CC(C)(C)OC(=O)N1CC[C@H](n2cc(-c3cnc(N)c(C(=O)OC(C(=O)Nc4ccc(F)cc4)c4ccccc4)n3)cn2)C1` (stereo partly drawn) [TDH-227, 2-((4-fluorophenyl)amino)-2-oxo-1-phenylethyl 3-amino-6-(1-((S)-1-(tert-butoxycarbonyl)pyrrolidin-3-yl)-1H-pyrazol-4-yl)pyrazine-2-carboxylate] is 6-fold higher in Kd: 2 nM for the first, 12 nM for the second. The first binds more tightly here.

Compared with `Nc1ncc(Br)nc1C(=O)N[C@H](C(=O)Nc1ccc(F)cc1)c1ccccc1` [TDH-067, (S)-3-amino-6-bromo-N-(2-((4-fluorophenyl)amino)-2-oxo-1-phenylethyl)pyrazine-2-carboxamide], `CN(C(=O)c1nc(-c2cnn(C3CCNCC3)c2)cnc1N)[C@@H](C(=O)Nc1ccc(F)cc1)c1ccccc1` [TDH-490, (R)-3-amino-N-(2-((4-fluorophenyl)amino)-2-oxo-1-phenylethyl)-N-methyl-6-(1-(piperidin-4-yl)-1H-pyrazol-4-yl)pyrazine-2-carboxamide hydrochloride] is lower in Kd: > 10000 nM for the first, 400 nM for the second.

Going from `Nc1ncc(C2=CCN(C(=O)CCCCCNC(=O)C3CN(c4cccc5c4C(=O)N(C4CCC(=O)NC4=O)C5=O)C3)CC2)cc1C(=O)O[C@@H](C(=O)Nc1ccc(F)cc1)c1ccccc1` (stereo partly drawn) [TDH-078, (R)-2-((4-fluorophenyl)amino)-2-oxo-1-phenylethyl 6-amino-1′-(6-(1-(2-(2,6-dioxopiperidin-3-yl)-1,3-dioxoisoindolin-4-yl)azetidine-3-carboxamido)hexanoyl)-1′,2′,3′,6′-tetrahydro-[3,4′-bipyridine]-5-carboxylate] to `Nc1ncc(-c2cnn(C3CCNCC3)c2)nc1C(=O)O[C@@H](C(=O)Nc1ccc(F)cc1)c1cccc(Cl)c1` [hydrochloride], the Kd falls from 90 nM to 2 nM (45-fold). The second binds more tightly here.

`Nc1ncc(-c2cnn(C3CCNCC3)c2)nc1C(=O)OC(C(=O)Nc1ccc(F)cc1)c1ccc(F)cc1` (stereo not drawn) [TDH-489, 1-(4-fluorophenyl)-2-((4-fluorophenyl)amino)-2-oxoethyl 3-amino-6-(1-(piperidin-4-yl)-1H-pyrazol-4-yl)pyrazine-2-carboxylate hydrochloride] and `Cc1ccc(NC(=O)[C@H](OC(=O)c2nc(-c3cnn(C4CCNCC4)c3)cnc2N)c2ccccc2)cc1` [TDH-319, (R)-2-oxo-1-phenyl-2-(p-tolylamino)ethyl 3-amino-6-(1-(piperidin-4-yl)-1H-pyrazol-4-yl)pyrazine-2-carboxylate hydrochloride] are within 1.5-fold of each other in Kd: 1.2 nM for the first, 0.82 nM for the second.

Work on `CC1CCC(NC(=O)[C@H](OC(=O)c2nc(-c3cnn(C4CCNCC4)c3)cnc2N)c2ccccc2)CC1` (stereo partly drawn) [TDH-424, (R)-2-((4-methylcyclohexyl)amino)-2-oxo-1-phenylethyl 3-amino-6-(1-(piperidin-4-yl)-1H-pyrazol-4-yl)pyrazine-2-carboxylate hydrochloride] yielded a Kd of 5.1 nM.
